Tested on: nude-mouse transplanted tumor of human gastric cancer MKN-45
Test: growth of nude-mouse transplanted tumor of human gastric cancer MKN-45
Details: positive control, 10 mg/kg iv, day 19

For O=c1[nH]cc(F)c(=O)[nH]1 [5-Fu, 5-fluorouracil], the RTV was 10.60±2.28 and the “T/C (%)” value was 37.72%.

— patent EP2926811A1, “ARTEMETHER-CONTAINING PHARMACEUTICAL COMPOSITION, PREPARATION, AND USE THEREOF” (Kunming Pharmaceutical Corp., priority 2012, dated 2014)
